Experimental data as given in US8975398B2, “NAMPT inhibitors” (AbbVie Inc., priority 2012, dated 2015).

What was measured:
[1] = target: NAMPT (human, recombinant, C-terminally His-tagged) (Homo sapiens, UniProt P43490); test: Time-Resolved Fluorescence Resonance Energy Transfer (TR-FRET) Binding Assay of NAMPT; details: 6.8 nM NAMPT, 200 nM probe, equilibrated 3 hours, absence of substrates
Summary of the method: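 Probe displacement measured by TR-FRET (Ex 337 nm; 520/495 nm ratio) after 3 h room-temperature equilibration of compound with 6.8 nM His-tagged human NAMPT, 1 nM Tb-anti-His antibody and 200 nM Oregon Green 488 nicotinamide-site probe, pH 7.5 HEPES buffer, 2% DMSO. Control-normalized data fit four-parameter logistic for IC50.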

NAMPT = NAMPT (Homo sapiens, UniProt P43490); test: Time-Resolved Fluorescence Resonance Energy Transfer (TR-FRET) Binding Assay of NAMPT with PRPP; details: 2 nM NAMPT, 2 nM probe, 200 uM PRPP and 2.5 mM ATP, equilibrated 16 hours
Summary of the method: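 Binding measured by TR-FRET after a 16-hour equilibration meant to permit enzymatic compound modification. Substrates present at 200 uM PRPP and 2.5 mM ATP, with 2 nM enzyme, 2 nM probe, 1 nM Tb-anti-His antibody and 2% DMSO final.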

NAMPT (human, recombinant, C-terminally His-tagged), sequence (P43490 whole entry): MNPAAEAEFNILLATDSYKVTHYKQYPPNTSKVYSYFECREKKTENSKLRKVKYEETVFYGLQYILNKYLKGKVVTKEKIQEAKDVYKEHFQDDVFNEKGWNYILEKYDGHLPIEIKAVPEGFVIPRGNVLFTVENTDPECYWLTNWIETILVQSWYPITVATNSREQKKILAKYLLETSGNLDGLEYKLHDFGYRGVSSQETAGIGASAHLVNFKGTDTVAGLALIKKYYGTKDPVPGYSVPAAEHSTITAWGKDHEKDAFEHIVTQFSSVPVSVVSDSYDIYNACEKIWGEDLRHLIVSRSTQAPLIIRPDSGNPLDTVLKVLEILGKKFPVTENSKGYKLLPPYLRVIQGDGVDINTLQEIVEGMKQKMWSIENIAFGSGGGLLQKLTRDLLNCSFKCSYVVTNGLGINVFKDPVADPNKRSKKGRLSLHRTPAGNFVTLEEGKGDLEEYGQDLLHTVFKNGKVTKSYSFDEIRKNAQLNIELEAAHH
NAMPT, sequence (P43490 whole entry): as above

Row | Compound | IC50 [1] | IC50 (NAMPT)
1 | O=C(Nc1ccc(C2CCN(C(=O)CCN3CCCCC3)CC2)cc1)C1CN(c2cccnc2)C1 [Example 130, N-(4-{1-[3-(piperidin-1-yl)propanoyl]piperidin-4-yl}phenyl)-1-(pyridin-3-yl)azetidine-3-carboxamide] | 288 nM | 0.535 nM
2 | CC1CC1C(=O)N1CC(Oc2ccc(NC(=O)C3CN(c4ccnnc4)C3)cc2)C1 (centres unmarked) [Example 257, N-[4-({1-[(2-methylcyclopropyl)carbonyl]azetidin-3-yl}oxy)phenyl]-1-(pyridazin-4-yl)azetidine-3-carboxamide] | 64.7 nM | 41.9 nM
3 | Cc1ccc(C(=O)N2CCC(Oc3ccc(NC(=O)C4CN(c5ccnnc5)C4)cc3)CC2)s1 [Example 304, N-[4-({1-[(5-methylthiophen-2-yl)carbonyl]piperidin-4-yl}oxy)phenyl]-1-(pyridazin-4-yl)azetidine-3-carboxamide] | 55.4 nM | 24.2 nM
4 | O=C(Nc1ccc(C2CCN(CC3CCCC3)CC2)cc1)C1CN(c2cccnc2)C1 [Example 88, N-{4-[1-(cyclopentylmethyl)piperidin-4-yl]phenyl}-1-(pyridin-3-yl)azetidine-3-carboxamide] | 574 nM | 0.64 nM
5 | COCCOCC(=O)N1CCC(c2ccc(NC(=O)C3CN(c4cccnn4)C3)cc2)CC1 [Example 335, N-(4-{1-[(2-methoxyethoxy)acetyl]piperidin-4-yl}phenyl)-1-(pyridazin-3-yl)azetidine-3-carboxamide] | 210 nM | 1.02 nM
6 | CC[C@H](C)C(=O)N1CCC(Oc2ccc(C(=O)NC3CN(c4cccnc4)C3)cc2)CC1 [Example 23, 4-({1-[(2S)-2-methylbutanoyl]piperidin-4-yl}oxy)-N-[1-(pyridin-3-yl)azetidin-3-yl]benzamide] | 1950 nM | 0.61 nM
7 | CC(C)CCC(=O)N1CC(Oc2ccc(NC(=O)C3CN(c4ccnnc4)C3)cc2)C1 [Example 263, N-(4-{[1-(4-methylpentanoyl)azetidin-3-yl]oxy}phenyl)-1-(pyridazin-4-yl)azetidine-3-carboxamide] | 31.3 nM | 20.2 nM
8 | O=C(Nc1ccc(C2CCN(C(=O)c3ccoc3)CC2)cc1)C1CN(c2cccnn2)C1 [Example 375, N-{4-[1-(furan-3-ylcarbonyl)piperidin-4-yl]phenyl}-1-(pyridazin-3-yl)azetidine-3-carboxamide] | 6.72 nM | 0.679 nM

More lines, in order of falling IC50 [1], values ahead:

Row | IC50 [1] | IC50 (NAMPT) | Compound
9 | 784 nM | 0.548 nM | CCC(CC)CN1CCC(c2ccc(NC(=O)C3CN(c4cccnc4)C3)cc2)CC1 [Example 92, N-{4-[1-(2-ethylbutyl)piperidin-4-yl]phenyl}-1-(pyridin-3-yl)azetidine-3-carboxamide]
10 | 305 nM | 94.1 nM | COCC(=O)N1CCC(c2ccc(NC(=O)C3CN(c4cccnc4C)C3)cc2)CC1 [Example 195, N-{4-[1-(methoxyacetyl)piperidin-4-yl]phenyl}-1-(2-methylpyridin-3-yl)azetidine-3-carboxamide]
11 | 99 nM | 64.7 nM | O=C(Nc1ccc(OC2CCN(C(=O)c3cccc(OC(F)(F)F)c3)CC2)cc1)C1CN(c2ccnnc2)C1 [Example 292, 1-(pyridazin-4-yl)-N-[4-({1-[3-(trifluoromethoxy)benzoyl]piperidin-4-yl}oxy)phenyl]azetidine-3-carboxamide]
12 | 60.4 nM | 91.3 nM | Cc1ncccc1N1CC(C(=O)Nc2ccc(C3CCN(C(=O)C4(C)CCCCC4)CC3)cc2)C1 [Example 177, N-(4-{1-[(1-methylcyclohexyl)carbonyl]piperidin-4-yl}phenyl)-1-(2-methylpyridin-3-yl)azetidine-3-carboxamide]
13 | 43.9 nM | 0.991 nM | CCCC(=O)N1CCC(c2ccc(NC(=O)C3CN(c4cccnn4)C3)cc2)CC1 [Example 317, N-[4-(1-butanoylpiperidin-4-yl)phenyl]-1-(pyridazin-3-yl)azetidine-3-carboxamide]
